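Method: 48-hour compound exposure of cells in 96-well plates, five concentrations, linear interpolation of endpoints. GI50 is the concentration that inhibits growth by half. TGI: total growth inhibition.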

Some test systems named below: OVCAR-8 ovarian; SF-268 CNS; IGROV1 ovarian; HCC-2998 colon; K-562 leukemia; EKVX NSCLC; NCI-H460 lung; OVCAR-3 ovarian; UACC-62 melanoma; A498 renal.
What all share (assay): NCI anticancer screen, dose series, 48 h

For `Nn1c(CCCl)nc2c(Br)cc(Br)cc2c1=O`, the TGI was more than 100 µM in the experiment with OVCAR-8 ovarian; more than 100 µM in the experiment with SF-268 CNS; 60.3 µM in the experiment on IGROV1 ovarian; more than 100 µM in the experiment on HCC-2998 colon; more than 30.6 µM in the experiment on K-562 leukemia; more than 93.7 µM in the experiment on EKVX NSCLC. For the same compound, the TGI with NCI-H460 lung was 65.1 µM; in the experiment with OVCAR-3 ovarian, 39.8 µM; in the experiment with UACC-62 melanoma it was more than 83.8 µM; in the experiment with A498 renal it was more than 56.9 µM.

For `Nc1ccccc1NC(=O)c1ccc(CSc2nc(N3CCOCC3)c3cccn3n2)cc1`, the GI50 with OVCAR-8 ovarian was 509 nM; in the experiment on SF-268 CNS, 732 nM; in the experiment on IGROV1 ovarian, 1180 nM; in the experiment with HCC-2998 colon, 2000 nM; in the experiment with K-562 leukemia it was 312 nM; with EKVX NSCLC it was 1080 nM. Also, the GI50 was 524 nM in the experiment with NCI-H460 lung, 1050 nM in the experiment with OVCAR-3 ovarian, 412 nM with UACC-62 melanoma and 1090 nM in the experiment on A498 renal. The TGI in the experiment with OVCAR-8 ovarian is more than 100 µM; with SF-268 CNS, 10.5 µM; with IGROV1 ovarian, more than 100 µM; with HCC-2998 colon, 7.41 µM; in the experiment with K-562 leukemia, more than 100 µM; in the experiment on EKVX NSCLC, more than 100 µM. Besides, the TGI in the experiment on NCI-H460 lung is more than 100 µM; with OVCAR-3 ovarian, 6.73 µM; with UACC-62 melanoma, 2.82 µM; with A498 renal, 5.34 µM.

Consider `COc1ccc(NC(=O)C(=O)C(CC2C(=O)NC(=S)NC2=O)C(=O)c2ccc3ccccc3c2)c([N+](=O)[O-])c1` (configuration not stated), for which the TGI with OVCAR-8 ovarian, in the experiment on SF-268 CNS, in the experiment with IGROV1 ovarian, in the experiment with HCC-2998 colon, with K-562 leukemia and with EKVX NSCLC was more than 100 µM in each case. Further, the TGI with NCI-H460 lung, in the experiment with OVCAR-3 ovarian, with UACC-62 melanoma and with A498 renal was more than 100 µM each time.

Regarding `CCOC(=O)/C(=C/c1ccc(OC)c(OC)c1)C(=O)c1ccccc1`, the TGI was 76.8 µM in the experiment with OVCAR-8 ovarian; 36.7 µM in the experiment with SF-268 CNS; 51.4 µM with IGROV1 ovarian; 32.5 µM in the experiment with HCC-2998 colon; more than 100 µM in the experiment on K-562 leukemia; 67.4 µM with EKVX NSCLC. In addition, the TGI in the experiment with NCI-H460 lung is more than 100 µM; with OVCAR-3 ovarian it was 33.6 µM; in the experiment with UACC-62 melanoma, 29.5 µM; with A498 renal it was 46.5 µM.

For `O=S(=O)(NCCNc1cc(-c2cn(-c3ccccc3)nc2-c2cccc(O)c2)ccn1)c1ccc(C(F)(F)F)cc1`, the GI50 in the experiment with OVCAR-8 ovarian is 4910 nM; in the experiment on SF-268 CNS it was 3420 nM; with IGROV1 ovarian it was 2360 nM; with HCC-2998 colon, 2040 nM; in the experiment on K-562 leukemia it was 2480 nM; in the experiment with EKVX NSCLC, 2250 nM. In addition, the GI50 in the experiment on NCI-H460 lung was 3230 nM; with OVCAR-3 ovarian, 2200 nM; in the experiment on UACC-62 melanoma it was 1780 nM; in the experiment on A498 renal, 3050 nM. Moreover, the TGI in the experiment with OVCAR-8 ovarian is 26.1 µM; with SF-268 CNS, 17.3 µM; in the experiment on IGROV1 ovarian, 5.89 µM; in the experiment with HCC-2998 colon, 4.45 µM; in the experiment with K-562 leukemia, 6.58 µM; in the experiment on EKVX NSCLC, 11.8 µM. Further, the TGI in the experiment on NCI-H460 lung was 10.1 µM; in the experiment on OVCAR-3 ovarian, 5.58 µM; in the experiment on UACC-62 melanoma it was 3.98 µM; with A498 renal, 14.5 µM.

In the case of `CC1=CC2=C(OCO1)C(=O)c1ccccc1C2=O`, the TGI in the experiment on OVCAR-8 ovarian was 32.3 µM; in the experiment with SF-268 CNS it was 26.1 µM; in the experiment with IGROV1 ovarian, 27.6 µM; with HCC-2998 colon, more than 100 µM; in the experiment on K-562 leukemia, 40.3 µM; with EKVX NSCLC, more than 100 µM. Besides, the TGI with NCI-H460 lung came out at 19.1 µM; in the experiment with OVCAR-3 ovarian it was 13.3 µM; with UACC-62 melanoma, 9.89 µM; with A498 renal, 29.5 µM.

Regarding `COC(=O)C1=CC(O)CCC1c1ccc(OC)cc1` (configuration not stated), the TGI in the experiment on OVCAR-8 ovarian, in the experiment on SF-268 CNS, with IGROV1 ovarian, with HCC-2998 colon, in the experiment with K-562 leukemia and in the experiment on EKVX NSCLC was more than 100 µM in each case. For the same compound, the TGI in the experiment on NCI-H460 lung, in the experiment with OVCAR-3 ovarian, in the experiment on UACC-62 melanoma and in the experiment on A498 renal was more than 100 µM in each case.

Turning to `CSc1nc(NC2OCC(OC(C)=O)C(OC(C)=O)C2OC(C)=O)c(N=CC=Nc2c(NC3OCC(OC(C)=O)C(OC(C)=O)C3OC(C)=O)nc(SC)n(C)c2=O)c(=O)n1C` (configuration not stated), the TGI in the experiment on OVCAR-8 ovarian, with SF-268 CNS, in the experiment with IGROV1 ovarian, with HCC-2998 colon, in the experiment on K-562 leukemia and in the experiment on EKVX NSCLC was more than 100 µM in each case. The TGI with NCI-H460 lung, in the experiment with OVCAR-3 ovarian, in the experiment on UACC-62 melanoma and with A498 renal was more than 100 µM throughout.

Regarding `C=C(C)C1CC=C(C(=O)O)CC1` (configuration not stated), the TGI is more than 5000 µM in the experiment with OVCAR-8 ovarian; 4060 µM in the experiment with SF-268 CNS; 1480 µM with IGROV1 ovarian; 2340 µM with HCC-2998 colon; more than 5000 µM with K-562 leukemia; more than 5000 µM in the experiment with EKVX NSCLC. Further, the TGI turned out to be 3950 µM with NCI-H460 lung, 1660 µM in the experiment with OVCAR-3 ovarian, 1450 µM in the experiment on UACC-62 melanoma and 4420 µM in the experiment on A498 renal.

Turning to `CCCCCCCC1c2cc3[nH]c(cc4nc(cc5[nH]c(cc(n2)[C@@]1(C)CC(=O)N(C)C)c(C)c5CCC(=O)O)C(CCC(=O)O)=C4C)cc3C` (some centres not stated), the TGI with SF-268 CNS was 42.9 µM; in the experiment with IGROV1 ovarian it was 39.6 µM; in the experiment with HCC-2998 colon it was 37.8 µM; in the experiment on K-562 leukemia, 56.7 µM; in the experiment with EKVX NSCLC, more than 100 µM; with NCI-H460 lung it was 43.8 µM. The TGI in the experiment on OVCAR-3 ovarian was determined as 37.1 µM; in the experiment on UACC-62 melanoma, 33.1 µM; with A498 renal, 87.2 µM.

Take `C[C@H](c1ccc(Cl)cc1N)N1C(=O)c2cc(I)ccc2N(CCCN2CCN(C)CC2)C(=O)[C@@H]1c1ccc(Cl)cc1`: the GI50 in the experiment on SF-268 CNS is 1700 nM; in the experiment on IGROV1 ovarian, 1290 nM; with HCC-2998 colon, 1630 nM; in the experiment with K-562 leukemia, 1570 nM; with EKVX NSCLC, 1550 nM; with NCI-H460 lung it was 1320 nM. Moreover, the GI50 in the experiment on OVCAR-3 ovarian is 1800 nM; in the experiment on UACC-62 melanoma it was 1230 nM; with A498 renal, 1300 nM. For the same compound, the TGI was 3.2 µM with SF-268 CNS; 3.12 µM in the experiment with IGROV1 ovarian; 3.03 µM in the experiment with HCC-2998 colon; 3.3 µM in the experiment on K-562 leukemia; 3.21 µM in the experiment on EKVX NSCLC; 2.71 µM with NCI-H460 lung. Also, the TGI in the experiment on OVCAR-3 ovarian was 3.28 µM; in the experiment on UACC-62 melanoma it was 2.54 µM; in the experiment with A498 renal it was 2.7 µM.
